Measured values: US20250288583A1, “Treatment of Mucus Hypersecretion” (priority 2024, published 2025)

Assays:
nasal cavity = assay: Gravimetric measurement of nasal secretions in a subject with rhinitis after NasoNeb rinsing; format: in vivo, human; conditions: NasoNeb rinse 5 sec at t=0, 2, 5 hr, D-Ala-OiPr 2 mg/mL, GlyOiPr 3 mg/mL; for Weight of individual blowouts of nasal secretions (average ± s.e.m.): vehicle 0.40±0.03 g; for 10-hr nasal secretion (avg. ± s.e.m): vehicle 3.53±0.44 g
Procedure: A top-loading balance, sensitive to 1 mg, was used to measure phlegm secretions from the nose. A pre-weighed tissue paper was tared to zero, and after blowing into the tissue, the amount of exudate was recorded from the balance display. This measurement is an objective sign of nasal inflammation. Microbalances, sensitive to 1 mg, are now available online for less than $20. Conventional laboratory balances with the same capabilities are listed for $2000+ each but should now be obsolete. The convenience of an inexpensive method for quantifying phlegm output as an indicator of nasal pathology is part of the inventive steps.
FIG. 9. Inhibition of nasal secretions in a subject with rhinitis by topical administration of the preferred embodiments D-Ala-OiPr and GlyOiPr with a Nasoneb® apparatus. Rinsing of GlyOiPr and D-Ala-OiPr (dissolved 3 mg/ml and 2 mg/mL, respectively, in 1% ethanol and 2% polysorbate 80) was for 5 sec at t=0, 2, and 5 hr. Secretions were recorded for 10-15 hr per day. The 10-hr secretion (avg.±s.e.m) was vehicle 3.53±0.44 g, D-Ala-OiPr 1.70±0.27 g, GlyOiPr 1.32±0.32 g, with n=6, 5, 5 observations per group, respectively.
FIG. 10. Weights of individual blowouts of nasal secretions in a subject with rhinitis after topical administration of D-Ala-OiPr and GlyOiPr with a Nasoneb® apparatus. The vehicle or test substances were rinsed into the nasal cavity (0 mg/mL, 2 mg/mL and 3 mg/mL, respectively, for 5 sec at t=0, 2, and 5 hr). The data points are for individual “blowouts” from the nose, measured with tissue paper and balance. The data are plotted on a semi-log scale, so zero values are not shown. The average #s.e.m. for blowouts were: vehicle 0.40±0.03 g, D-Ala-OiPr 0.19±0.02 g, GlyOiPr 0.19±0.02 g, with n=70, 44, 42 observations per group, respectively.
In the first experimental step, the phlegm secretion must be accurately measured. That is, it is necessary to show what is “blown out” of the nose in patients with rhinitis (FIG. 8). The treatment goal is to reduce the accumulation of dense, slimy, viscous phlegm, which will otherwise ooze out of the nasal cavity. In practice, it was discovered that if treatment can reduce individual blowouts to <0.25 g/event, the subject with rhinitis becomes essentially “disease-free” and is able to have normal daily activities and sleep well at night. […] The top-loading microbalance method for quantifying phlegm weight is an excellent monitor of rhinitis intensity.
FIG. 9. […] The data points represent secretions recorded for 10-15 hr per day. These points were fitted by linear regression (GraphPad Prism), and the 10-hr secretion measured (avg.±s.e.m) as vehicle 3.53±0:44 g, D-Ala-OiPr 1.700:27 g; GlyOiPr 1.32±0.32 g, with n=6, 5, 5 observations per group, respectively. […]

Stability of the solid = format: physicochemical; conditions: room temperature and physiological pH
oral cavity = conditions: Johnson et al., 2018; cited from earlier work

Compound	Weight of individual blowouts of nasal secretions (average ± s.e.m.) (nasal cavity)	10-hr nasal secretion (avg. ± s.e.m) (nasal cavity)	Stability (Stability of the solid)	Sensory qualities in the oral cavity compared with WS-5 (oral cavity)
CC(C)OC(=O)[C@@H](C)NC(=O)[C@@H]1C[C@H](C)CC[C@H]1C(C)C [D-Ala-OiPr, (R)-2-[((1R,2S,5R)-2-isopropyl-5-methyl-cyclohexanecarbonyl)amino]-propionic acid i-propyl ester]	0.19 ± 0.02 g	1.70±0.27 g		
CC(C)OC(=O)CNC(=O)[C@@H]1C[C@H](C)CC[C@H]1C(C)C [GlyOiPr, [((1R,2S,5R)-2-isopropyl-5-methyl-cyclohexanecarbonyl)-amino]-acetic acid isopropyl ester]	0.19 ± 0.02 g	1.32±0.32 g	stable at room temperature and physiological pH	more refreshing and less bitter than WS-5
